# Results from patent publication US20230241014A1, “MEK-INHIBITORS FOR THE TREATMENT OR PREVENTION OF CORONAVIRUS INFECTIONS AND/OR COVID-19 CYTOKINE STORM” (priority 2020, published 2023).
# Tested on: SARS-CoV-2 SA variant B.1351
# Test: Virus yield reduction assay against SARS-CoV-2 SA variant B.1351
# Type: cell-based
# Settings: MOI 0.1, 1 and 10, 50, 75, 100 μM, 24 h
structure (smiles),measurement,setting,value
"O=C(O)c1ccc(F)c(F)c1Nc1ccc(I)cc1Cl [ATR-002, 2-(2-chloro-4-iodophenylamino)-N-3,4-difluoro benzoic acid]",virus yield (RT-qPCR),Calu-3,reduction of virus yield
same,virus yield (RT-qPCR),Vero,reduction of virus yield
